Consider four compounds from patent publication US12569473B2, “Methods to treat respiratory infection utilizing castanospermine analogs” (60 Degrees Pharmaceuticals, Inc., priority 2022, dated 2026).

Data set [1] deals with human rhinovirus-14. Put plainly: CPE inhibition assay, visual examination, human rhinovirus-14. Format: cell-based. Particulars: for EC50: visual examination, HeLa Ohio cells, unit inferred. As to the method: (§1) The efficacy of celgosivir and castanospermine against RSV and human rhinovirus-14 was assessed in vitro. For RSV studies, embryonic African green monkey kidney cells (MA-104) were grown in minimal essential medium (MEM) supplemented with 0.1% NaHCO3 and 10% fetal bovine serum. When performing antiviral assays, serum was reduced to 2% and […] gentamicin was added to the medium. RSV strain A2 was used for the studies. For rhinovirus studies, the HeLa Ohio cell line was used in place of MA-104 cells.
(§2) CPE inhibition assays with visual quantification of antiviral activity and cytotoxicity were performed as described by Sidwell and Huffman (1971) with slight modifications. Sidwell, R. W. and Huffman, J. H. (1971) Use of disposable micro-tissue culture plates for antiviral and interferon induction studies. Appl. Microbiol. 22, […]. […] All compounds were assayed for virus inhibition in quadruplicate and for cytotoxicity in duplicate. For rhinovirus studies, Pirodavir was applied at a concentration of 0.001-1 μg/ml as the positive control compound. For RSV studies, the positive control compound was Ribavirin applied at a concentration of 0.5-500 μg/ml. For each compound, two wells were set aside as uninfected, untreated cell controls per test and four wells per test received virus only and represented controls for virus replication. […] For all CPE-based assays, the 50% effective concentration (EC50) was calculated by regression analysis using the means of the CPE ratings at each concentration of compound. Morphological changes due to compound cytotoxicity were graded on a scale of 0-5; grade 5 was defined as 100% cytotoxicity. The 50% cytotoxic dose (IC50) was calculated by regression analysis. A selective index (S.I.) was calculated for each compound (SI.=(IC50)/(EC50)).

The nature of data set [2]: Cytotoxicity, visual examination, HeLa Ohio cells. The following applies: human, unit inferred. Format: cell-based. As to the method:
as §1, §2

The conditions of data set [3]: mice; 50 mg/kg BID dose; cited from earlier work.
In data set [4] the test system is RSV strain A2. Briefly: CPE inhibition assay, visual examination, RSV. Format: cell-based. Particulars: human respiratory syncytial virus, MA104, visual examination, MA-104 cells, unit inferred. How it is done: as §1, §2
A short description of data set [5]: Cytotoxicity, neutral red assay, MA-104 cells. Format: cell-based. Particulars: African green monkey, MA-104 cells (embryonic African green monkey kidney), unit inferred. How it is done: as §1
(§3) CPE inhibition assays with visual quantification of antiviral activity and cytotoxicity were performed as described by Sidwell and Huffman (1971) with slight modifications. Sidwell, R. W. and Huffman, J. H. (1971) Use of disposable micro-tissue culture plates for antiviral and interferon induction studies. Appl. Microbiol. 22, […]. […] All compounds were assayed for virus inhibition in quadruplicate and for cytotoxicity in duplicate. For rhinovirus studies, Pirodavir was applied at a concentration of 0.001-1 μg/ml as the positive control compound. For RSV studies, the positive control compound was Ribavirin applied at a concentration of 0.5-500 μg/ml. For each compound, two wells were set aside as uninfected, untreated cell controls per test and four wells per test received virus only and represented controls for virus replication. […] A selective index (S.I.) was calculated for each compound (SI.=(IC50)/(EC50)).
(§4) Neutral red assay of CPE inhibition and cytotoxicity was performed by a modified method as described by Cavenaugh et al. (1990). […] Briefly, medium was removed from each well of a plate scored for CPE from the visual CPE inhibition assay, 0.2 ml of neutral red (0.034% in PSS) was added to each of the wells of that plate and the plate incubated for 2 h at 37° C. in the dark. […] Absorbances at 540 and 450 nm were read with a microplate reader (Bio-Tek EL 1309; Bio-Tek Instruments). […] Absorbance values were expressed as percentages of untreated controls and EC50 and IC50 values were calculated by regression analysis

A short description of data set [6]: Cytotoxicity, neutral red assay, HeLa Ohio cells. The format is cell-based. The following applies: human, unit inferred. How it is done: as §1, §3, §4
Data set [7] has as its system human rhinovirus-14. Briefly: Neutral red assay of CPE inhibition, human rhinovirus-14. Format: cell-based. Particulars: HeLa Ohio cells, unit inferred. As to the method: as §1, §3, §4
For data set [8] the following is noted: CELADEN study regimen; cited from earlier work.
Data set [9] concerns RSV strain A2. Briefly: Neutral red assay of CPE inhibition, RSV. The format is cell-based. Particulars: human respiratory syncytial virus, MA104, MA-104 cells, unit inferred. How it is done: as §1, §3, §4
Data set [10] has as its system embryonic African green monkey kidney cells (MA-104). Briefly: Cytotoxicity, visual examination, MA-104 cells. Format: cell-based. As to the method: as §1, §2
Data set [11] is described as follows: Cytotoxicity, visual examination, MA-104 cells. The format is cell-based, African green monkey. The following applies: African green monkey. How it is done: as §1, §2
Data set [12] concerns RSV [strain A/A2]. Briefly: Nose and lung viral titers in RSV-infected cotton rats. Particulars: Day 5 post infection, celgosivir 25, 50 or 100 mg/kg BID from one day before or after infection, synagis 2.5 mg/kg i.m. once per day, vs vehicle. Format: in vivo, Cotton rats [Sigmodon hispidus]. How it is done: (§5) Cotton rats [Sigmodon hispidus, 2 male & 3 female, 6-8 weeks old] provided with standard rodent chow and water ad lib, were infected intranasally with RSV [strain A/A2, 10^5 pfu] on Day 0. Animals received celgosivir [25, 50 or 100 mg/kg BID for total daily doses of 50, 100 or 200 mg/kg] daily beginning one day before or after infection and were sacrificed on Day 5-post-infection for histopathology, qPCR, and viral load assessment. Control groups included a [i] positive control Synagis [2.5 mg/kg, i.m, once per day from the first day post-infection], [ii] vehicle control in which vehicle was administered twice per day beginning one day prior to RSV infection, [iii] a vehicle control group that were mock-infected with PBS for which treatment was initiated beginning one day prior to infection, and [iv] an untreated group mock infected with PBS that received no treatment. Animals were weighed on Day −1 and Day 5, and plasma was obtained by retro-orbital bleed on the same days.
(§6) The RSV strain for inoculation [A/A2 (RSV A/A2) (ATCC, Manassas, VA)] was propagated in HEp-2 cells after serial plaque-purification to reduce defective-interfering particles. A pool of virus designated containing approximately 3.0×10^8 pfu/mL in sucrose stabilizing media was used in the experiment. This stock of virus was stored at −80° C. and was previously characterized in vivo in the cotton rat model and validated for upper and lower respiratory tract replication.
Viral Titers: Nose and lung homogenates were centrifuged and diluted in EMEM. Confluent HEp-2 monolayers were infected in duplicate with diluted homogenates in 24-well plates. Following one hour incubation at 37° C. […] Plaques were counted and virus titer determined as geometric mean plaque-forming units per gram of tissue±standard error for all animals in a group at a given time.
Statistics: Group means for each parameter were evaluated by one-way ANOVA, then individual group means were compared [t-test, with multiple comparison correction] to the RSV-infected, vehicle-treated control group. […]

Data set [13] concerns RSV [strain A/A2]. Put plainly: Pulmonary histopathology in RSV-infected cotton rats. Format: in vivo, Cotton rats [Sigmodon hispidus]. Particulars: Day 5 post infection, celgosivir 25, 50 or 100 mg/kg BID from one day before or after infection, synagis 2.5 mg/kg i.m. once per day, vs vehicle. As to the method: as §5, §6
Pulmonary Histopathology: Lungs were removed and inflated with 10% neutral buffered formalin to their normal volume, then fixed [using the same solution]. After fixation, lungs were embedded in paraffin, sectioned, and stained with H&E. Four parameters of pulmonary inflammation were evaluated: peribronchiolitis (inflammatory cell infiltration around the bronchioles), perivasculitis (inflammatory cell infiltration around the small blood vessels), interstitial pneumonia (inflammatory cell infiltration and thickening of alveolar walls), and alveolitis (cells within the alveolar spaces). Slides were blindly scored on a 0-4 severity scale. The scores are subsequently converted to a 0-100% normalized scale.
Statistics: Group means for each parameter were evaluated by one-way ANOVA, then individual group means were compared [t-test, with multiple comparison correction] to the RSV-infected, vehicle-treated control group. P<0.05 was considered statistically significant.

The mark [14] stands for this setting: compounds tested at 0.3, 3, 30 and 300 microM.
Setting [15] is: positive control applied at 0.001-1 μg/ml.
Setting [16] is: positive control applied at 0.5-500 μg/ml.

Turning to `O[C@H]1[C@H](O)[C@@H](O)CN2CC[C@H](O)[C@H]12` [Castanospermine], the “efficacy against human rhinovirus-14” value in the data set on human rhinovirus-14 [1] (at the concentrations tested (0.3-300 microM)) is “Neither celgosivir nor castanospermine were determined to be efficacious”. Besides, the EC50 in the data set on human rhinovirus-14 [1] (setting [14]), in the data set on RSV strain A2 [4] (setting [14]), with human rhinovirus-14 [7] (setting [14]) and in the data set with RSV strain A2 [9] (setting [14]) was > 300 µM each time. Besides, the CC50 at 6 days in [2] (setting [14]), in data set [5] (setting [14]), in [6] (setting [14]) and in data set [11] (CC50) was > 300 µM in each case. Further, in data set [3], the “steady state minimum castanospermine concentration” value is 400 nanograms/ml. Besides, the “steady state maximum castanospermine concentration” value in data set [8] is 5100 nanograms/ml. Also, the “safety in vitro (CC50 above the highest concentration tested)” value in [10] is listed as “safe at all concentrations tested”.
In the case of `CCOC(=O)c1ccc(OCCC2CCN(c3ccc(C)nn3)CC2)cc1` [Pirodavir, reference compound], the EC50 (usually the concentration giving half of the maximal effect) in the data set on human rhinovirus-14 [1] (setting [15]) was 0.032 µg/mL; with human rhinovirus-14 [7] (setting [15]) it was 0.031 µg/mL. The CC50 at 6 days in data set [2] (setting [15]) and in data set [6] (setting [15]) was > 1 µg/mL each time.
For the compound `NC(=O)c1ncn([C@@H]2O[C@H](CO)[C@@H](O)[C@H]2O)n1` [Ribavirin, reference compound], the EC50 in the data set on RSV strain A2 [4] (setting [16]) turned out to be 4 µg/mL; in the data set on RSV strain A2 [9] (setting [16]), 2.8 µg/mL. Moreover, the CC50 (in general, the concentration at which the toxic effect on the cells reaches its halfway point) at 6 days was determined as 62 µg/mL in [5] (setting [16]) and 340 µg/mL in [11] (MA-104 cells (embryonic African green monkey kidney), visual examination, MA-104 cells, positive control applied at 0.5-500 μg/ml, unit inferred, read-out: CC50).
Take “Synagis: positive control in cotton rat RSV study, 2.5 mg/kg i.m. once per day”: in the data set with RSV [strain A/A2] [12], the “nasal and lung viral titer” value is on record as “decrease viral titer”. Further, the “lung histopathology scores (RSV-induced inflammation)” value with RSV [strain A/A2] [13] is given as “statistically significant reductions across all four histopathology domains”.
